How the values were obtained:
Type in all cases: in vivo
[1] = system: giant foxtail (Setaria faberi); test: Test G Post-Emergence Protocol; settings: Setaria faberi, post-emergence, 312 h, read-out: Foxtail, Giant damage rating; for pest or weed control at 15.625 g/ha: 15.625 g ai/ha, evaluated after 13 days (100=total damage to plant; 0=no damage to plant); for pest or weed control at 62.5 g/ha: 62.5 g ai/ha; for pest or weed control at 62.5 g/ha / pest or weed control at 250 g/ha: evaluated after 13 days, 100=total damage to plant, 0=no damage to plant; for pest or weed control at 250 g/ha: 250 g ai/ha
Summary of the method: (§1)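 Scores run 0 (no damage) to 100 (total damage) and were taken 13 days after spraying. Plants had been raised in pots for 8 days under glasshouse control (24/16 °C, 14 h photoperiod, 65% humidity) and then treated at 15.625, 62.5 or 250 g/ha.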

[2] = system: barnyardgrass (Echinochloa crus-galli); test: Test G Post-Emergence Protocol; settings: Echinochloa crus-galli, post-emergence, 312 h, read-out: Barnyardgrass damage rating; for pest or weed control at 15.625 g/ha: 15.625 g ai/ha, evaluated after 13 days (100=total damage to plant; 0=no damage to plant); for pest or weed control at 62.5 g/ha: 62.5 g ai/ha; for pest or weed control at 62.5 g/ha / pest or weed control at 250 g/ha: evaluated after 13 days, 100=total damage to plant, 0=no damage to plant; for pest or weed control at 250 g/ha: 250 g ai/ha
Summary of the method: as §1

[3] = system: ivy-leaved morning glory (Ipomoea hederacea); test: Test G Post-Emergence Protocol; settings: Ipomoea, post-emergence, 312 h, read-out: Morningglory, Ivy-leaved damage rating; for pest or weed control at 15.625 g/ha: 15.625 g ai/ha, evaluated after 13 days (100=total damage to plant; 0=no damage to plant); for pest or weed control at 62.5 g/ha: 62.5 g ai/ha; for pest or weed control at 62.5 g/ha / pest or weed control at 250 g/ha: evaluated after 13 days, 100=total damage to plant, 0=no damage to plant; for pest or weed control at 250 g/ha: 250 g ai/ha
Summary of the method: as §1

[4] = system: velvetleaf (Abutilon theophrasti); test: Test G Post-Emergence Protocol; settings: Abutilon theophrasti, post-emergence, 312 h, read-out: Velvetleaf damage rating; for pest or weed control at 15.625 g/ha: 15.625 g ai/ha, evaluated after 13 days (100=total damage to plant; 0=no damage to plant); for pest or weed control at 62.5 g/ha: 62.5 g ai/ha; for pest or weed control at 62.5 g/ha / pest or weed control at 250 g/ha: evaluated after 13 days, 100=total damage to plant, 0=no damage to plant; for pest or weed control at 250 g/ha: 250 g ai/ha
Summary of the method: as §1

[5] = system: redroot pigweed (Amaranthus retroflexus); test: Test G Post-Emergence Protocol; settings: Amaranthus retroflexus, post-emergence, 312 h, read-out: Pigweed, Redroot damage rating; for pest or weed control at 15.625 g/ha: 15.625 g ai/ha, evaluated after 13 days (100=total damage to plant; 0=no damage to plant); for pest or weed control at 62.5 g/ha: 62.5 g ai/ha; for pest or weed control at 62.5 g/ha / pest or weed control at 250 g/ha: evaluated after 13 days, 100=total damage to plant, 0=no damage to plant; for pest or weed control at 250 g/ha: 250 g ai/ha
Summary of the method: as §1

corn (Zea mays) [6] = test: Test G Post-Emergence Protocol; settings: Zea mays, post-emergence, 312 h, read-out: Corn damage rating; for plant injury at 15.625 g/ha: 15.625 g ai/ha, evaluated after 13 days (100=total damage to plant; 0=no damage to plant); for plant injury at 62.5 g/ha: 62.5 g ai/ha; for plant injury at 62.5 g/ha / plant injury at 250 g/ha: evaluated after 13 days, 100=total damage to plant, 0=no damage to plant; for plant injury at 250 g/ha: 250 g ai/ha
Summary of the method: as §1

[7] = system: giant foxtail (Setaria faberi); test: Test G Pre-Emergence Protocol; settings: Setaria faberi, pre-emergence, 312 h, evaluated after 13 days; for pest or weed control at 15.625 g/ha: 15.625 g ai/ha; for pest or weed control at 15.625 g/ha / pest or weed control at 250 g/ha: read-out: Foxtail, Giant damage rating (100=total damage to plant; 0=no damage to plant); for pest or weed control at 62.5 g/ha: 62.5 g ai/ha, 100=total damage to plant, 0=no damage to plant, read-out: Foxtail, Giant damage rating; for pest or weed control at 250 g/ha: 250 g ai/ha
Summary of the method: (§2)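 Scores are visual damage ratings from 0 (no damage) to 100 (total plant kill), taken 13 days after treatment. Compound was sprayed one day post-sowing at 15.625, 62.5 or 250 g/ha in 50:50 acetone/water with 0.5% Tween 20.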

[8] = system: barnyardgrass (Echinochloa crus-galli); test: Test G Pre-Emergence Protocol; settings: Echinochloa crus-galli, pre-emergence, 312 h, evaluated after 13 days; for pest or weed control at 15.625 g/ha: 15.625 g ai/ha; for pest or weed control at 15.625 g/ha / pest or weed control at 250 g/ha: read-out: Barnyardgrass damage rating (100=total damage to plant; 0=no damage to plant); for pest or weed control at 62.5 g/ha: 62.5 g ai/ha, 100=total damage to plant, 0=no damage to plant, read-out: Barnyardgrass damage rating; for pest or weed control at 250 g/ha: 250 g ai/ha
Summary of the method: as §2

[9] = system: ivy-leaved morning glory (Ipomoea hederacea); test: Test G Pre-Emergence Protocol; settings: Ipomoea, pre-emergence, 312 h, evaluated after 13 days; for pest or weed control at 15.625 g/ha: 15.625 g ai/ha; for pest or weed control at 15.625 g/ha / pest or weed control at 250 g/ha: read-out: Morningglory, Ivy-leaved damage rating (100=total damage to plant; 0=no damage to plant); for pest or weed control at 62.5 g/ha: 62.5 g ai/ha, 100=total damage to plant, 0=no damage to plant, read-out: Morningglory, Ivy-leaved damage rating; for pest or weed control at 250 g/ha: 250 g ai/ha
Summary of the method: as §2

[10] = system: velvetleaf (Abutilon theophrasti); test: Test G Pre-Emergence Protocol; settings: Abutilon theophrasti, pre-emergence, 312 h, evaluated after 13 days; for pest or weed control at 15.625 g/ha: 15.625 g ai/ha; for pest or weed control at 15.625 g/ha / pest or weed control at 250 g/ha: read-out: Velvetleaf damage rating (100=total damage to plant; 0=no damage to plant); for pest or weed control at 62.5 g/ha: 62.5 g ai/ha, 100=total damage to plant, 0=no damage to plant, read-out: Velvetleaf damage rating; for pest or weed control at 250 g/ha: 250 g ai/ha
Summary of the method: as §2

[11] = system: redroot pigweed (Amaranthus retroflexus); test: Test G Pre-Emergence Protocol; settings: Amaranthus retroflexus, pre-emergence, 312 h, evaluated after 13 days; for pest or weed control at 15.625 g/ha: 15.625 g ai/ha; for pest or weed control at 15.625 g/ha / pest or weed control at 250 g/ha: read-out: Pigweed, Redroot damage rating (100=total damage to plant; 0=no damage to plant); for pest or weed control at 62.5 g/ha: 62.5 g ai/ha, 100=total damage to plant, 0=no damage to plant, read-out: Pigweed, Redroot damage rating; for pest or weed control at 250 g/ha: 250 g ai/ha
Summary of the method: as §2

corn (Zea mays) [12] = test: Test G Pre-Emergence Protocol; settings: Zea mays, pre-emergence, 312 h, evaluated after 13 days; for plant injury at 15.625 g/ha: 15.625 g ai/ha; for plant injury at 15.625 g/ha / plant injury at 250 g/ha: read-out: Corn damage rating (100=total damage to plant; 0=no damage to plant); for plant injury at 62.5 g/ha: 62.5 g ai/ha, 100=total damage to plant, 0=no damage to plant, read-out: Corn damage rating; for plant injury at 250 g/ha: 250 g ai/ha
Summary of the method: as §2

SMILES | pest or weed control at 15.625 g/ha [1] | pest or weed control at 62.5 g/ha [1] | pest or weed control at 250 g/ha [1] | pest or weed control at 15.625 g/ha [2] | pest or weed control at 62.5 g/ha [2] | pest or weed control at 250 g/ha [2] | pest or weed control at 15.625 g/ha [3] | pest or weed control at 62.5 g/ha [3] | pest or weed control at 250 g/ha [3] | pest or weed control at 15.625 g/ha [4] | pest or weed control at 62.5 g/ha [4] | pest or weed control at 250 g/ha [4] | pest or weed control at 15.625 g/ha [5] | pest or weed control at 62.5 g/ha [5] | pest or weed control at 250 g/ha [5] | plant injury at 15.625 g/ha (corn (Zea mays) [6]) | plant injury at 62.5 g/ha (corn (Zea mays) [6]) | plant injury at 250 g/ha (corn (Zea mays) [6]) | pest or weed control at 15.625 g/ha [7] | pest or weed control at 62.5 g/ha [7] | other results
CN1CC(c2cc(C#N)cc(OC(F)(F)F)c2)C(C(=O)Nc2cccc(F)c2F)C1=O (stereo not drawn) [Compound 1694] | 0% | 0% | 0% | 0% | 0% | 0% | 0% | 0% | 0% | 0% | 0% | 0% | 0% | 0% | 0% | 0% | 0% | 0% | 0% | 0% | pest or weed control at 250 g/ha [7]: 0%; pest or weed control at 15.625 g/ha [8]: 0%; pest or weed control at 62.5 g/ha [8]: 0%; pest or weed control at 250 g/ha [8]: 0%; pest or weed control at 15.625 g/ha [9]: 0%; pest or weed control at 62.5 g/ha [9]: 0%; pest or weed control at 250 g/ha [9]: 0%; pest or weed control at 15.625 g/ha [10]: 0%; pest or weed control at 62.5 g/ha [10]: 0%; pest or weed control at 250 g/ha [10]: 0%; pest or weed control at 15.625 g/ha [11]: 0%; pest or weed control at 62.5 g/ha [11]: 0%; pest or weed control at 250 g/ha [11]: 0%; plant injury at 15.625 g/ha (corn (Zea mays) [12]): 0%; plant injury at 62.5 g/ha (corn (Zea mays) [12]): 0%; plant injury at 250 g/ha (corn (Zea mays) [12]): 0%
CCOc1cc(C2CN(C)C(=O)C2C(=O)Nc2cccc(F)c2F)cc(C(F)(F)F)c1 (stereo not drawn) [Compound 1696] | 70% | 80% | 80% | 40% | 70% | 80% | 20% | 60% | 60% | 0% | 0% | 10% | 70% | 50% | 60% | 50% | 70% | 70% | 60% | 80% | pest or weed control at 250 g/ha [7]: 90%; pest or weed control at 15.625 g/ha [8]: 10%; pest or weed control at 62.5 g/ha [8]: 70%; pest or weed control at 250 g/ha [8]: 80%; pest or weed control at 15.625 g/ha [9]: 10%; pest or weed control at 62.5 g/ha [9]: 10%; pest or weed control at 250 g/ha [9]: 20%; pest or weed control at 15.625 g/ha [10]: 10%; pest or weed control at 62.5 g/ha [10]: 0%; pest or weed control at 250 g/ha [10]: 0%; pest or weed control at 15.625 g/ha [11]: 20%; pest or weed control at 62.5 g/ha [11]: 0%; pest or weed control at 250 g/ha [11]: 20%; plant injury at 15.625 g/ha (corn (Zea mays) [12]): 0%; plant injury at 62.5 g/ha (corn (Zea mays) [12]): 40%; plant injury at 250 g/ha (corn (Zea mays) [12]): 50%

— patent publication US12077503B2, “Substituted cyclic amides and their use as herbicides” (FMC CORPORATION, priority 2015, dated 2024)
